IC50 data for 13 molecules are collected here from US20250092065A1, “2-(INDAZOL-5-YL)-6-(PIPERIDIN-4-YL)-1,7-NAPHTHYRIDINE DERIVATIVES AND RELATED COMPOUNDS AS MODULATORS FOR SPLICING NUCLEIC ACIDS AND FOR THE TREATMENT OF PROLIFERATIVE DISEASES” (REMIX THERAPEUTICS INC., priority 2022, published 2025).

The test system of assay [1] is Target C. Put plainly: RT-qPCR canonical junction panel assay, Target C mRNA. It counts as cell-based. To be noted: Table 4, read-out: Target C IC50 (decrease in CJ mRNA levels). An outline of the steps:
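A673 or K562 cells treated with compound; CJ mRNA quantified by junction-spanning RT-qPCR probe after cDNA synthesis, normalised to GAPDH, GUSB or PPIA and DMSO (2^−ΔΔCt), scaled to set ΔCt assay window; IC50 from 4-parameter fit of CJ decrease.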

The test system of assay [2] is HTT. Put plainly: HiBiT protein abundance assay, HTT (K562 HiBiT knock-in). Format: cell-based, human. To be noted: HiBiT knock-in K562 cells, 24 hours, top dose 10 μM. An outline of the steps:
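Endogenously HiBiT-tagged K562 lines were treated for 24 h at 37 °C with 10-point 3-fold dilutions (top 10 μM final, DMSO ≤0.25%). Lytic LgBiT complementation luminescence was normalized between unmodified K562 (PC) and DMSO-treated tagged cells (NC); IC50 was interpolated at 50% from a four-parameter logistic fit.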

On to `CC(C)(C)NC1CCN(c2ccc3nc(-c4cc5oc(C6CC6)nc5cc4O)ccc3n2)C1` (centres unmarked) [Compound 333, 6-{6-[3-(tert-butylamino)pyrrolidin-1-yl]-1,5-naphthyridin-2-yl}-2-cyclopropyl-1,3-benzoxazol-5-ol], for which the IC50 in assay [1] and in assay [2] was 0.1 to 1 µM in each case.
In the case of `COCc1nc2cc(O)c(-c3ccc4nc(N5CCC(NC(C)(C)C)C5)ccc4n3)cc2o1` (centres unmarked) [Compound 334, 6-{6-[3-(tert-butylamino)pyrrolidin-1-yl]-1,5-naphthyridin-2-yl}-2-(methoxymethyl)-1,3-benzoxazol-5-ol], the IC50 in assay [1] and in assay [2] was 0.1 to 1 µM in each case.
For `COc1cc2nc(C3COC3)oc2cc1-c1ccc2nc(N3CCC(NC(C)(C)C)C3)ccc2n1` (centres unmarked) [Compound 335], the IC50 in assay [1] and in assay [2] was 1 to 10 µM each time.
With `CC(C)(C)NC1CCN(c2ccc3nc(-c4cc5oc(CO)nc5cc4O)ccc3n2)C1` (centres unmarked) [Compound 336, 6-{6-[3-(tert-butylamino)pyrrolidin-1-yl]-1,5-naphthyridin-2-yl}-2-(hydroxymethyl)-1,3-benzoxazol-5-ol], the IC50 is 0.1 to 1 µM in assay [1] and below 0.1 µM in assay [2].
For `CNC1CCN(c2ccc3nc(-c4cc5cn(C)nc5c(C)c4O)ncc3n2)C1` (centres unmarked) [Compound 337, 2,7-dimethyl-5-{6-[3-(methylamino)pyrrolidin-1-yl]pyrido[3,2-d]pyrimidin-2-yl}indazol-6-ol] the same measures were above 10 µM and 0.1 to 1 µM.
For `Cc1c(O)c(-c2ncc3nc(N4CCNCC4)ccc3n2)cc2cn(C)nc12` [Compound 338, 2,7-dimethyl-5-[6-(piperazin-1-yl)pyrido[3,2-d]pyrimidin-2-yl]indazol-6-ol] the same measures were 1 to 10 µM and 0.1 to 1 µM.
For `Cc1nc2cc(O)c(-c3ccc4nc(N5CCC(NC(C)(C)C)C5)ccc4n3)cc2n1C` (centres unmarked) [Compound 339, 6-{6-[3-(tert-butylamino)pyrrolidin-1-yl]-1,5-naphthyridin-2-yl}-1,2-dimethyl-1,3-benzodiazol-5-ol] the same measures were 0.1 to 1 µM and 0.1 to 1 µM.
Regarding `Cc1nc2cc(-c3ccc4nc(N5CCC(NC(C)(C)C)C5)ccc4n3)c(O)cc2n1C` (centres unmarked) [Compound 340, 6-{6-[3-(tert-butylamino)pyrrolidin-1-yl]-1,5-naphthyridin-2-yl}-2,3-dimethyl-1,3-benzodiazol-5-ol], the 50% inhibitory concentration (IC50) in assay [1] and in assay [2] was 0.1 to 1 µM throughout.
As for `Cn1cc2cc(-c3ccc4nc(N5CCC(NC67CC(O)(C6)C7)C5)ccc4n3)c(O)cc2n1` (centres unmarked) [Compound 341, 5-{6-[3-({3-hydroxybicyclo[1.1.1]pentan-1-yl}amino)pyrrolidin-1-yl]-1,5-naphthyridin-2-yl}-2-methylindazol-6-ol], the IC50 in assay [1] and in assay [2] was 0.1 to 1 µM in each case.
Take `Cc1c(O)c(-c2ncc3nc(N4CCC5(CCN5)C4)ccc3n2)cc2cn(C)nc12` (centres unmarked) [Compound 342, 5-(6-{1,6-diazaspiro[3.4]octan-6-yl}pyrido[3,2-d]pyrimidin-2-yl)-2,7-dimethylindazol-6-ol]: the IC50 in assay [1] and in assay [2] was 0.1 to 1 µM each time.
Consider `Cc1cc2nc(-c3ccc4nc(N5CCC(NC(C)(C)C)C5)ccc4n3)cn2c(C)n1` (centres unmarked) [Compound 344, N-tert-butyl-1-(6-{5,7-dimethylimidazo[1,2-c]pyrimidin-2-yl}-1,5-naphthyridin-2-yl)pyrrolidin-3-amine], for which the values for the IC50 in assay [1] and in assay [2] were above 10 µM and 1 to 10 µM, respectively.
Take `CCc1nc2cc(O)c(-c3ccc4nc(N5CCC(NC(C)(C)C)C5)ccc4n3)cc2o1` (centres unmarked) [Compound 346, 6-{6-[3-(tert-butylamino)pyrrolidin-1-yl]-1,5-naphthyridin-2-yl}-2-ethyl-1,3-benzoxazol-5-ol]: the IC50 in assay [1] and in assay [2] was 1 to 10 µM throughout.
For `Cc1nc2cc(O)c(-c3ccc4nc(N5CC[C@H](N[C@H]6C[C@H](F)C6)C5)ccc4n3)cc2o1` [Compound 350, 2-methyl-6-{6-[(3S)-3-{[(1r,3r)-3-fluorocyclobutyl]amino}pyrrolidin-1-yl]-1,5-naphthyridin-2-yl}-1,3-benzoxazol-5-ol], the IC50 is 0.1 to 1 µM in assay [1] and below 0.1 µM in assay [2].
